The values below come from US6335459B1, “Aryl carboxylic acid and aryl tetrazole derivatives as IP receptor modulators” (Syntex (U.S.A.) LLC, priority 1998, dated 2002).

Counter-ions that a name gives are not always drawn.

Consider `O=C(O)COc1cccc(/C=C/COC(=O)N(c2ccccc2)c2ccccc2)c1` [Example 6, Trans-[3-(3-Diphenylcarbamoyloxypropenyl)phenoxy}acetic acid], for which the melting point was in the range of 112.4 to 113.7 °C. As to `O=C(O)COc1cccc(COC(=O)N(c2ccccc2)c2ccccc2)c1Cl` [Example 1, {2-Chloro-3-[(diphenylcarbamoyloxy)methyl]phenoxy}acetic acid], the melting point fell in the range of 182.2 to 182.9 °C. Take `O=C(O)CCc1cccc(/C=C\COC(=O)N(c2ccccc2)c2ccccc2)c1` (as salt: salt) [Example 13, cis-3-[3-(3-Diphenylcarbamoyloxypropenyl)phenyl]propionic acid]: the melting point was 131.8 to 132.4 °C.

In the case of `O=C(O)COc1cccc(COC(=O)N(c2ccccc2)c2ccccc2)c1` [Example 4, {3-[(Diphenylcarbamoyloxy)methyl]phenoxy}acetic acid], the melting point lay within 142.2 to 143.8 °C.

`CC(C)(C)N.O=C(O)CCCOc1cccc(/C=C\COC(=O)N(c2ccccc2)c2ccccc2)c1` [Example 10A, cis-4-[3-(3-diphenylcarbamoyloxypropenyl)phenoxy]butyric acid tert-butylamine salt]: the melting point lay within 102 to 106 °C. The figure for `Cc1c(COC(=O)N(c2ccccc2)c2ccccc2)cccc1OCC(=O)O` [Example 2, {3-[(Diphenylcarbamoyloxy)methyl]-2-methylphenoxy}acetic acid] is 180.1 to 180.7 °C. To `CC(C)(C)N.O=C(O)c1cccc(/C=C\CCOC(=O)N(c2ccccc2)c2ccccc2)c1` [Example 14B, cis-3-(4-diphenylcarbamoyloxybut-1-enyl)benzoic acid tert-butylamine salt] belongs 172.8 to 176.8 °C; to `Cc1c(CCCOC(=O)N(c2ccccc2)c2ccccc2)cccc1CC(=O)O` [Example 12, [3-(3-diphenylcarbamoyloxypropyl)-2-methylphenyl]acetic acid], 128.7 to 129.2 °C. `O=C(O)Cc1cccc(CCCCCCOC(=O)N(c2ccccc2)c2ccccc2)c1` [Example 12, [3-(6-diphenylcarbamoyloxyhexyl)phenyl]acetic acid] yielded a melting point of 99.8 to 101.7 °C. To `CC(C)(C)N.O=C(O)Cc1cccc(/C=C\CCOC(=O)N(c2ccccc2)c2ccccc2)c1` [Example 14A, cis-[3-(4-diphenylcarbamoyloxybut-1-enyl)phenyl]acetic acid tert-butylamine salt] belongs 151.2 to 153.1 °C; to `O=C(O)CCCCOc1cccc(/C=C\COC(=O)N(c2ccccc2)c2ccccc2)c1` [Example 10A, cis-5-[3-(3-diphenylcarbamoyloxypropenyl)phenoxy]pentanoic acid], 56.3 to 56.7 °C; to `O=C(O)Cc1cccc(CCCCOC(=O)N(c2ccccc2)c2ccccc2)c1` [Example 12, [3-(4-diphenylcarbamoyloxybutyl)phenyl]acetic acid], 117.8 to 119.6 °C. The figure for `CC(C)(C)N.O=C(O)c1cccc(/C=C\COC(=O)N(c2ccccc2)c2ccccc2)c1` [Example 14B, cis-3-(3-diphenylcarbamoyloxypropenyl)benzoic acid tert-butylamine salt] is 180.5 to 184 °C.

`O=C(O)COc1cccc(/C=C\CCOC(=O)N(c2ccccc2)c2ccccc2)c1` (as salt: salt) [Example 10A, cis-[3-(4-diphenylcarbamoyloxybut-1-enyl)phenoxy]acetic acid tert-butylamine salt] had a melting point of 112.5 to 112.8 °C. The figure for `O=C(O)COc1cccc(/C=C\COC(=O)N(c2ccccc2)c2ccccc2)c1` (as salt: salt) [Example 9, Cis-[3-(3-Diphenylcarbamoyloxypropenyl)phenoxy]acetic acid] is 132.5 to 135 °C; for `CC(C)(C)N.CC(CCc1cccc(CC(=O)O)c1)OC(=O)N(c1ccccc1)c1ccccc1` (stereo not drawn) [Example 14C, [3-(3-diphenylcarbamoyloxybutyl)phenyl]acetic acid tert-butylamine salt] it is 112.3 to 113.1 °C. Molecule `O=C(O)Cc1cccc(CCOC(=O)N(c2ccccc2)c2ccccc2)c1` [Example 12, [3-(2-diphenylcarbamoyloxyethyl)phenyl]acetic acid] yielded a melting point of 123 to 123.3 °C.

Regarding `O=C(O)Cc1cccc(CCCCCOC(=O)N(c2ccccc2)c2ccccc2)c1` [Example 12, [3-(5-diphenylcarbamoyloxypentyl)phenyl]acetic acid], the melting point lay within 128.1 to 128.7 °C. The figure for `CC(C)(C)N.O=C(O)COc1cccc(/C=C\CCCCOC(=O)N(c2ccccc2)c2ccccc2)c1` [Example 10A, cis-[3-(6-diphenylcarbamoyloxyhex-1-enyl)phenoxy]acetic acid tert-butylamine salt] is 87 to 88.5 °C. To `Cc1c(/C=C\COC(=O)N(c2ccccc2)c2ccccc2)cccc1OCC(=O)O` [Example 8, Cis-[3-(3-Diphenylcarbamoyloxypropenyl)-2-methylphenoxy]acetic acid] belongs 133.4 to 135.5 °C; to `O=C(O)COc1cccc(/C=C\COC(=O)N(Cc2ccccc2)c2ccccc2)c1` (as salt: salt) [Example 10B, cis-{3-[3-(benzylphenylcarbamoyloxypropenyl)phenoxy]acetic acid tert-butylamine salt], 107 to 108.5 °C.
